Source: patent US8058414B2, “Unnatural polymerase substrates that can sustain enzymatic synthesis of double stranded nucleic acids from a nucleic acid template and methods of use” (Life Technologies Corporation, priority 2008, dated 2011)

Experiments:
Klenow enzyme = molecular target: T1, Klenow enzyme (Escherichia coli, UniProt P00582); experiment: Polymerase extension of FAM labeled primer over (AAG)14 template; type: biochemical; details: for extension over (AAG)14 template (electropherogram): FIG. 12, with dCTP, FAM labeled primer
T1 construct: Klenow enzyme at 37° C. for 1 minute
T1 sequence (P00582 324-928): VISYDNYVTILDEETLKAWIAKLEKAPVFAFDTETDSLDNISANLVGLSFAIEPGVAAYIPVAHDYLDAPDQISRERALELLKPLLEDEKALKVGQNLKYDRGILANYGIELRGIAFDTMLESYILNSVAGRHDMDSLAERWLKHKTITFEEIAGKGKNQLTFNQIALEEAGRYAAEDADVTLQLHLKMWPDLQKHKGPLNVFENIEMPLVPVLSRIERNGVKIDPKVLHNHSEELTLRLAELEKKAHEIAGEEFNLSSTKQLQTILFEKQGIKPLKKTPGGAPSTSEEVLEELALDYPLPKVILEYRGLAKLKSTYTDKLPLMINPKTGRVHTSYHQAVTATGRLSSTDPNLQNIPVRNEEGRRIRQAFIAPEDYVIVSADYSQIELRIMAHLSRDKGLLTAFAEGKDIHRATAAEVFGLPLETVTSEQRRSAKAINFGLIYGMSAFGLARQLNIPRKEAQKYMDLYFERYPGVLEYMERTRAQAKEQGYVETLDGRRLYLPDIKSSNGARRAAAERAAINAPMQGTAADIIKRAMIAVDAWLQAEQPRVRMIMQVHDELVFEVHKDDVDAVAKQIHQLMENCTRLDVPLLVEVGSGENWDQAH
Protocol: In order to determine if a polymerase would continue to extend an unnatural DNA (i.e., a DNA including moieties not present in natural DNA) comprising residues having amino groups, an experiment was designed using aminopropargyl-dUTP (deoxyuridine triphosphate) and dCTP (deoxycytidine triphosphate) which yields extended DNA having residues with terminal amino functional groups on the incorporated dUTP moieties. The dUTP used is represented by the formula: […]
The experiment was conducted using an FAM (i.e., 6-carboxyfluorescein) labeled primer over an (AAG)14 [SEQ ID NO: 1] template.
These substrates were tested against the same template/primer system used in the experiments shown in FIGS. 12A and 12B {i.e., Klenow enzyme at 37° C. for 1 minute over an (AAG)14 [SEQ ID NO: 1] template}. The concentration of the nucleotides for this experiment was 5 μM. The results of this experiment are summarized in the electropherogram of FIG. 13C.
Similar experiments were conducted over the same template for natural dCTP/dTTP, with results shown in the electropherogram of FIG. 13A, and the methylpropynyl analogs of these substrates, with results shown in the electropherogram of FIG. 13B.

[1] = tested on: Therminator (NEB) DNA polymerases; experiment: Evaluation of termination and mis-incorporation properties of γ-substituted-dNTP's (capillary electrophoresis of primer extension); type: biochemical; details: for termination properties (overall) / extension to the first correct base / consumption of the primer / further incorporation over the 2nd correct base (template 2) / activity / incorporation / mis-incorporation: 1 μM substrate; for extension to the first correct base / consumption of the primer: after 10 minutes; for further incorporation over the 2nd correct base (template 2): after 60 minutes
Protocol: FIGS. 21A-21D are electropherograms showing the termination properties of γ-phosphate substituted dUTP analogs having an O-propargyl-S-substituent at the 5 position over a p(dA) template.
[drawing 12] wherein R1 is a methyl group. The substrate concentration was 1 μM. FIG. 21A is an electropherogram for the primer. FIGS. 21B-D are the electropherograms after 10, 30 and 60 minutes of extension, respectively.
FIGS. 22A-22D are electropherograms showing the mis-incorporation properties of γ-phosphate substituted dUTP analogs having an O-propargyl-S-substituent at the 5 position and a benzyl group as a γ-phosphate substituent. The nucleotide analog used in these experiments had the same general structure as set forth above in the description of FIGS. 21A-21D. For these experiments, all reactions were conducted for 10 minutes at a substrate concentration of 1 μM using Mg^2+. Two templates were used:
General procedure for evaluation of termination properties of γ-substituted-dNTP's comprising silver ion cleavable linker arms attached to the base. All evaluations performed with Therminator (NEB) DNA polymerases were 3′ to 5′ exonuclease negative. Three types of templates were used in testing each substrate, where N denotes the complement of the base that is being evaluated for its termination properties, and the underlined portion of the target is the priming site: 1) a single correct base immediately after the priming site followed by incorrect bases; 2) two correct bases immediately after the priming site followed by incorrect bases; 3) each incorrect base followed by the correct base and then additional incorrect bases. The first two primers were used to show incorporation and termination, while the third set of templates was used to study mis-incorporation. All substrates were evaluated by capillary electrophoresis with analysis for extension of 0, 1, or 2 bases from a fluorescein labeled −21 M13 primer (the binding site of the primer corresponds to the underlined portion of the templates shown below).
Templates were pre-hybridized to the primer at 2 μM final concentration. The final assay concentration of the primer/template hybrid was 40 nM.
Unless otherwise noted, substrates were tested at 1 μM final concentration with 1 μL of the appropriate commercial enzyme at the concentration supplied by the manufacturer (usually 2-5 U/μL in 2× buffer composed of 40 mM Tris, pH 7.6, 10 mM DTT, 10 mM […] and 30 mM isocitrate). Each buffer was used at 1× in the final assay.
Generally, assays were set up as 10 μL final volume and run at 65° C. The termination properties were evaluated at 10 minutes, 30 minutes and 1 hr. At the end of each reaction, […] of the reaction mix was pipetted into 25 μL of 0.5 M EDTA, to quench the reaction, in a streptavidin coated microtiter plate well (Applied Biosystems Part No. 4357279) to capture the biotin labeled template for purification of the primer. Plates were shaken at room temperature for 10 minutes. Excess fluid was discarded and the microtiter wells were washed 3× with 4×SSC containing 0.1% Tween 20. Plates were centrifuged briefly upside down to remove excess buffer. To remove the primer from the template, 20 μL of HiDi Formamide (Applied Biosystems Part No. 4311320) was added with size ladder (LIZ® dye-labeled SNPlex™ internal size standard) to each well. The plate was incubated at 50° C. with shaking for 10 minutes. […] of the HiDi Formamide solution was transferred to a 96 well plate (Applied Biosystems Part No. N8010560) and covered with a 96 well plate septa (Applied Biosystems Part No. 4315933). Samples were separated electrophoretically on an AB 3100XL with a 36 cm capillary with POP6™ polymer separating media. The peaks were analyzed with either GeneScan® Software or Peak Scanner™ software, both from Applied Biosystems.

[2] = 5 μM substrate, after 30 minutes

How did the “synthesis of the extension product over (AAG)14 template” value (Klenow enzyme; FIG. 13, Klenow enzyme at 37° C. for 1 minute, nucleotides 5 μM) turn out when CC#CCNC(=O)CO was run?
Its value is “excellent synthesis of the extension product”.

Which results are given for NCC#Cc1cn([C@H]2C[C@H](O)[C@@H](COP(=O)(O)OP(=O)(O)OP(=O)(O)O)O2)c(=O)[nH]c1=O [aminopropargyl-dUTP]?
extension over (AAG)14 template (electropherogram) (Klenow enzyme; 42 base target template): poor extension; extent of extension over the template (Klenow enzyme; FIG. 12B, 42 base target template): ≤ 14 bases

Which results are given for Nc1ncnc2c1ncn2[C@H]1C[C@H](O)[C@@H](COP(=O)(O)OP(=O)(O)OP(=O)(O)OCc2ccccc2)O1 [compound 27, γ-benzyl-dATP]?
termination properties (overall) [1]: excellent termination properties; extension to the first correct base / consumption of the primer [1]: almost complete consumption of the primer; further incorporation over the 2nd correct base (template 2) [1]: no further incorporation is observed

C[n+]1ccn(CCOP(=O)(O)OP(=O)(O)OP(=O)(O)OCC2OC(n3ccc(N)nc3=O)CC2O)c1 (stereo not drawn) [compound 28, γ-(2-(N-(3-methylimidazolium))-ethyl)-dCTP] was tested. Which activity [1] did it give?
Its activity is “quite low”.

And the incorporation ([1]; after 1 hr.)?
The incorporation was “significant incorporation”.

And the mis-incorporation ([1]; after 1 hr.)?
Its mis-incorporation is “no mis-incorporation is observed”.

What about the “consumption of the primer” value [1, 2] of the same molecule?
Its value is “completely consumed”.

What about the “extension past the first base on the GG template” value [1, 2] of the same molecule?
The value was “only a trace of extension”.

How did the activity [1] turn out when C[n+]1ccn(CCOP(=O)(O)OP(=O)(O)OP(=O)(O)OC[C@H]2O[C@@H](n3cnc4c(=O)[nH]c(N)nc43)C[C@@H]2O)c1 [compound 29, γ-(2-(N-(3-methylimidazolium))-ethyl)-dGTP] was run?
The activity was “quite low”.

And the incorporation ([1]; after 1 hr.)?
The incorporation was “significant incorporation”.

And the mis-incorporation ([1]; after 1 hr.)?
The mis-incorporation was “no mis-incorporation is observed”.

And the “consumption of the primer” value ([1]; 4 μM substrate, after 1 hr.)?
Its value is “completely consumed”.

And the “extension past the first base on the CC template” value ([1]; 4 μM substrate, after 1 hr.)?
Its value is “only a trace of extension”.

Which “extension over (AAG)14 template (electropherogram)” value (Klenow enzyme; 42 base target template) does the source give for methylpropynyl dUTP here?
The value was “extension to a single product”.

How did the “termination properties (overall)” value [1] turn out when γ-methyl-dUTP [compound 26] was run?
The value was “excellent termination properties”.

And the “extension to the first correct base / consumption of the primer” value [1]?
Its value is “almost complete consumption of the primer”.

And the “extension to the first correct base / consumption of the primer” value ([1]; listed as drawing 12)?
Its value is “almost complete”.

And the “further incorporation over the 2nd correct base (template 2)” value [1]?
The value was “No further incorporation is observed”.

What about the “further incorporation over the 2nd correct base (template 2)” value ([1]; listed as drawing 12) of the same molecule?
The value was “no observable incorporation”.

And the “incorporation into the AA template” value ([1]; FIG. 22B, 10 minutes, 1 μM, Mg2+)?
Its value is “is incorporated into the AA template”.

And the “mis-incorporation over the dG or dT in the GA and TA templates” value ([1]; FIG. 22C-D, 10 minutes, 1 μM, Mg2+)?
Its value is “is not mis-incorporated”.
